Target: Autotaxin (Homo sapiens, UniProt Q13822)
Test: Human ENPP2 (hENPP2) Assay: Compound IC50 values are determined in a hENPP2 (UniProtKB/SwissProt Sequence ref Q13822) biochemical assay using LPC as substrate. […] The enzyme is diluted in 50 mM Tris-HCl pH 8.5, 500 mM NaCl, 5 mM KCl, 10 mM CaCl2, 0.1% fatty acid free BSA in a total volume of 10 μL. the reaction is started by the addition of 10 μL of 150 μM LPC (palmitoyl 16:0) diluted in the same buffer as described above and the mixture is incubated at 37° C. for 30 min. The reaction is terminated and choline quantified by the addition of a 25 μL of a mixture containing 0.6 U/mL of choline oxidase, 0.6 U/mL of peroxydase, 1.8 mM TOOS, 1.2 mM amino-antipyrine, 20 mM EGTA (stop-developer solution) diluted in the buffer described above. […] is read on the Envision after an incubation of 30 min at room temperature (Excitation 555 nm, excitation light=70%).

IC50: > 1000 nM
SMILES: CCc1nc2ccc(C3CCN(S(C)(=O)=O)CC3)cn2c1N(C)c1nc(-c2ccc(F)cc2)c(Br)s1

Reference: ChEMBL document CHEMBL5725403, “Compounds and pharmaceutical compositions thereof for the treatment of inflammatory disorders” (2017)
